Measured values taken from article PMC7251241 (EBioMedicine, 2020).

T1: SapC (saposin C) (Homo sapiens, UniProt P07602)
T1 sequence (P07602 311-390 limits assumed): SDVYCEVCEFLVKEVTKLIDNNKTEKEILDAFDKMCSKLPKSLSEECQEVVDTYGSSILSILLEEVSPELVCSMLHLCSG

T2: acid β-glucosidase (GCase), Velaglucerase alfa (human, UniProt P04062 40-536, mannosyl-terminated oligosaccharide chains)
T2 sequence (looked up): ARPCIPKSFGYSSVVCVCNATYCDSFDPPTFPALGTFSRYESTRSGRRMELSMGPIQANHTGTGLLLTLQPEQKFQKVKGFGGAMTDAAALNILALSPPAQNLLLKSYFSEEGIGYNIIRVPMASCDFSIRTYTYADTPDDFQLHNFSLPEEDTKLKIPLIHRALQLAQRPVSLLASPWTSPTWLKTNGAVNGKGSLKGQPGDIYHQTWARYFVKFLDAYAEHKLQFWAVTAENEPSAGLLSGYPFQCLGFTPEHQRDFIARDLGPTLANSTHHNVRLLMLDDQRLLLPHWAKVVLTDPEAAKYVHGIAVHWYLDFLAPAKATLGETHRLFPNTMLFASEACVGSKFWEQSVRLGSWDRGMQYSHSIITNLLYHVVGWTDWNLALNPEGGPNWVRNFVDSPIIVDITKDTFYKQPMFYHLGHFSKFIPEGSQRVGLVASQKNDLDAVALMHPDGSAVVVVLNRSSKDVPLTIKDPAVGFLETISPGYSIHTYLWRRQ


Legend:
SapC (saposin C) = target: T1, SapC (saposin C); assay: microscale thermophoresis; type: binding
[1] = target: T2, acid β-glucosidase (GCase), …; assay: MST

Kd [1] [nM]	Molecule	Kd (SapC (saposin C)) [nM]
–	CCCCCCCC/C=C\CCCCCCCC(=O)OC[C@H](COP(=O)(O)OC[C@H](N)C(=O)O)OC(=O)CCCCCCC/C=C\CCCCCCCC [DOPS]	13.5 ± 1.65
29.4 ± 1.91	saposin C (SapC) (natural protein, UniProt P07602 311-390, looked up) SDVYCEVCEFLVKEVTKLIDNNKTEKEILDAFDKMCSKLPKSLSEECQEVVDTYGSSILSILLEEVSPELVCSMLHLCSG	–
